Values joined by “and” are separate entries in the source; they are usually repeats but may differ in a detail not shown here. Equal values may be shown once.
What was measured:
CCRF-CEM = test: NCI-60 one-dose SRB screen (Leukemia); assay type: cell-based; conditions: Homo sapiens, single dose 10 µM, 48 h, read-out: Growth inhibition percent (GI %)
HL-60(TB) = test: NCI-60 one-dose SRB screen (Leukemia); assay type: cell-based; conditions: Homo sapiens, single dose 10 µM, 48 h, read-out: Growth inhibition percent (GI %)
K-562 = test: NCI-60 one-dose SRB screen (Leukemia); assay type: cell-based; conditions: Homo sapiens, K562, single dose 10 µM, 48 h, read-out: Growth inhibition percent (GI %)
MOLT-4 = test: NCI-60 one-dose SRB screen (Leukemia); assay type: cell-based; conditions: Homo sapiens, single dose 10 µM, 48 h, read-out: Growth inhibition percent (GI %)
RPMI-8226 = test: NCI-60 one-dose SRB screen (Leukemia); assay type: cell-based; conditions: Homo sapiens, single dose 10 µM, 48 h, read-out: Growth inhibition percent (GI %)
SR = test: NCI-60 one-dose SRB screen (Leukemia); assay type: cell-based; conditions: Homo sapiens, single dose 10 µM, 48 h, read-out: Growth inhibition percent (GI %)
A549/ATCC = test: NCI-60 one-dose SRB screen (Non-Small Cell Lung Cancer); assay type: cell-based; conditions: Homo sapiens, single dose 10 µM, 48 h, read-out: Growth inhibition percent (GI %)
EKVX = test: as above; assay type: cell-based; conditions: Homo sapiens, single dose 10 µM, 48 h, read-out: Growth inhibition percent (GI %)
HOP-62 = test: as above; assay type: cell-based; conditions: Homo sapiens, single dose 10 µM, 48 h, read-out: Growth inhibition percent (GI %)
HOP-92 = test: as above; assay type: cell-based; conditions: Homo sapiens, single dose 10 µM, 48 h, read-out: Growth inhibition percent (GI %)
NCI-H226 = test: as above; assay type: cell-based; conditions: Homo sapiens, single dose 10 µM, 48 h, read-out: Growth inhibition percent (GI %)
NCI-H23 = test: as above; assay type: cell-based; conditions: Homo sapiens, single dose 10 µM, 48 h, read-out: Growth inhibition percent (GI %)
NCI-H322M = test: as above; assay type: cell-based; conditions: Homo sapiens, single dose 10 µM, 48 h, read-out: Growth inhibition percent (GI %)
NCI-H460 = test: as above; assay type: cell-based; conditions: Homo sapiens, single dose 10 µM, 48 h, read-out: Growth inhibition percent (GI %)
NCI-H522 = test: as above; assay type: cell-based; conditions: Homo sapiens, single dose 10 µM, 48 h, read-out: Growth inhibition percent (GI %)
COLO 205 = test: NCI-60 one-dose SRB screen (Colon Cancer); assay type: cell-based; conditions: Homo sapiens, single dose 10 µM, 48 h, read-out: Growth inhibition percent (GI %)
HCC-2998 = test: NCI-60 one-dose SRB screen (Colon Cancer); assay type: cell-based; conditions: Homo sapiens, single dose 10 µM, 48 h, read-out: Growth inhibition percent (GI %)
HCT-116 = test: NCI-60 one-dose SRB screen (Colon Cancer); assay type: cell-based; conditions: Homo sapiens, single dose 10 µM, 48 h, read-out: Growth inhibition percent (GI %)
HCT-15 = test: NCI-60 one-dose SRB screen (Colon Cancer); assay type: cell-based; conditions: Homo sapiens, single dose 10 µM, 48 h, read-out: Growth inhibition percent (GI %)
HT29 = test: NCI-60 one-dose SRB screen (Colon Cancer); assay type: cell-based; conditions: Homo sapiens, HT-29, single dose 10 µM, 48 h, read-out: Growth inhibition percent (GI %)
KM12 = test: NCI-60 one-dose SRB screen (Colon Cancer); assay type: cell-based; conditions: Homo sapiens, single dose 10 µM, 48 h, read-out: Growth inhibition percent (GI %)
SW-620 = test: NCI-60 one-dose SRB screen (Colon Cancer); assay type: cell-based; conditions: Homo sapiens, single dose 10 µM, 48 h, read-out: Growth inhibition percent (GI %)
LOX IMVI = test: NCI-60 one-dose SRB screen (Melanoma); assay type: cell-based; conditions: Homo sapiens, single dose 10 µM, 48 h, read-out: Growth inhibition percent (GI %)
M14 = test: NCI-60 one-dose SRB screen (Melanoma); assay type: cell-based; conditions: Homo sapiens, single dose 10 µM, 48 h, read-out: Growth inhibition percent (GI %)
MALME-3M = test: NCI-60 one-dose SRB screen (Melanoma); assay type: cell-based; conditions: Homo sapiens, single dose 10 µM, 48 h, read-out: Growth inhibition percent (GI %)
MDA-MB-435 = test: NCI-60 one-dose SRB screen (Melanoma); assay type: cell-based; conditions: Homo sapiens, single dose 10 µM, 48 h, read-out: Growth inhibition percent (GI %)
SK-MEL-28 = test: NCI-60 one-dose SRB screen (Melanoma); assay type: cell-based; conditions: Homo sapiens, single dose 10 µM, 48 h, read-out: Growth inhibition percent (GI %)
SK-MEL-2 = test: NCI-60 one-dose SRB screen (Melanoma); assay type: cell-based; conditions: Homo sapiens, single dose 10 µM, 48 h, read-out: Growth inhibition percent (GI %)
SK-MEL-5 = test: NCI-60 one-dose SRB screen (Melanoma); assay type: cell-based; conditions: Homo sapiens, single dose 10 µM, 48 h, read-out: Growth inhibition percent (GI %)
UACC-257 = test: NCI-60 one-dose SRB screen (Melanoma); assay type: cell-based; conditions: Homo sapiens, single dose 10 µM, 48 h, read-out: Growth inhibition percent (GI %)
UACC-62 = test: NCI-60 one-dose SRB screen (Melanoma); assay type: cell-based; conditions: Homo sapiens, single dose 10 µM, 48 h, read-out: Growth inhibition percent (GI %)
IGROV1 = test: NCI-60 one-dose SRB screen (Ovarian cancer); assay type: cell-based; conditions: Homo sapiens, IGROV-1, single dose 10 µM, 48 h, read-out: Growth inhibition percent (GI %)
NCI/ADR-RES = test: NCI-60 one-dose SRB screen (Ovarian cancer); assay type: cell-based; conditions: Homo sapiens, single dose 10 µM, 48 h, read-out: Growth inhibition percent (GI %)
OVCAR-3 = test: NCI-60 one-dose SRB screen (Ovarian cancer); assay type: cell-based; conditions: Homo sapiens, single dose 10 µM, 48 h, read-out: Growth inhibition percent (GI %)
OVCAR-4 = test: NCI-60 one-dose SRB screen (Ovarian cancer); assay type: cell-based; conditions: Homo sapiens, single dose 10 µM, 48 h, read-out: Growth inhibition percent (GI %)
OVCAR-5 = test: NCI-60 one-dose SRB screen (Ovarian cancer); assay type: cell-based; conditions: Homo sapiens, single dose 10 µM, 48 h, read-out: Growth inhibition percent (GI %)
OVCAR-8 = test: NCI-60 one-dose SRB screen (Ovarian cancer); assay type: cell-based; conditions: Homo sapiens, single dose 10 µM, 48 h, read-out: Growth inhibition percent (GI %)
SK-OV-3 = test: NCI-60 one-dose SRB screen (Ovarian cancer); assay type: cell-based; conditions: Homo sapiens, single dose 10 µM, 48 h, read-out: Growth inhibition percent (GI %)
DU-145 = test: NCI-60 one-dose SRB screen (Prostate Cancer); assay type: cell-based; conditions: Homo sapiens, single dose 10 µM, 48 h, read-out: Growth inhibition percent (GI %)
PC-3 = test: NCI-60 one-dose SRB screen (Prostate Cancer); assay type: cell-based; conditions: Homo sapiens, single dose 10 µM, 48 h, read-out: Growth inhibition percent (GI %)
HS 578T = test: NCI-60 one-dose SRB screen (Breast Cancer); assay type: cell-based; conditions: Homo sapiens, single dose 10 µM, 48 h, read-out: Growth inhibition percent (GI %)
MCF-7 = test: NCI-60 one-dose SRB screen (Breast Cancer); assay type: cell-based; conditions: Homo sapiens, MCF7, single dose 10 µM, 48 h, read-out: Growth inhibition percent (GI %)
MDA-MB-231/ATCC = test: NCI-60 one-dose SRB screen (Breast Cancer); assay type: cell-based; conditions: Homo sapiens, single dose 10 µM, 48 h, read-out: Growth inhibition percent (GI %)
T-47D = test: NCI-60 one-dose SRB screen (Breast Cancer); assay type: cell-based; conditions: Homo sapiens, T47D, single dose 10 µM, 48 h, read-out: Growth inhibition percent (GI %)
hCA IX = hCA IX (Homo sapiens, UniProt Q16790); test: CA inhibitory activity, spectrophotometric p-NPA assay; assay type: biochemical

CS(=O)(=O)c1ccc(-c2nn(-c3ccc(S(N)(=O)=O)cc3)cc2C(=O)OCC(=O)Nc2ccc(S(N)(=O)=O)cc2)cc1 [Compound 4e, 2-Oxo-2-[(4-sulfamoylphenyl)amino] ethyl 3-(4-(methylsulfonyl)phenyl)-1-(4-sulfamoylphenyl)-1H-pyrazole-4-carboxylate]
inhibition at 10 µM (CCRF-CEM): < 5%
inhibition at 10 µM (HL-60(TB)): < 5%
inhibition at 10 µM (K-562): < 5%
inhibition at 10 µM (MOLT-4): < 5%
inhibition at 10 µM (RPMI-8226): < 5%
inhibition at 10 µM (SR): < 5%
inhibition at 10 µM (A549/ATCC): 6.92%
inhibition at 10 µM (EKVX): < 5%
inhibition at 10 µM (HOP-62): < 5%
inhibition at 10 µM (HOP-92): < 5%
inhibition at 10 µM (NCI-H226): < 5%
inhibition at 10 µM (NCI-H23): < 5%
inhibition at 10 µM (NCI-H322M): < 5%
inhibition at 10 µM (NCI-H460): < 5%
inhibition at 10 µM (NCI-H522): 23.1%
inhibition at 10 µM (COLO 205): < 5%
inhibition at 10 µM (HCC-2998): < 5%
inhibition at 10 µM (HCT-116): < 5%
inhibition at 10 µM (HCT-15): < 5%
inhibition at 10 µM (HT29): 6.67%
inhibition at 10 µM (KM12): < 5%
inhibition at 10 µM (SW-620): < 5%
inhibition at 10 µM (LOX IMVI): < 5%
inhibition at 10 µM (M14): < 5%
inhibition at 10 µM (MALME-3M): < 5%
inhibition at 10 µM (MDA-MB-435): < 5%
inhibition at 10 µM (SK-MEL-28): < 5%
inhibition at 10 µM (SK-MEL-2): < 5%
inhibition at 10 µM (SK-MEL-5): < 5%
inhibition at 10 µM (UACC-257): 6.07%
inhibition at 10 µM (UACC-62): < 5%
inhibition at 10 µM (IGROV1): < 5%
inhibition at 10 µM (NCI/ADR-RES): < 5%
inhibition at 10 µM (OVCAR-3): < 5%
inhibition at 10 µM (OVCAR-4): < 5%
inhibition at 10 µM (OVCAR-5): < 5%
inhibition at 10 µM (OVCAR-8): < 5%
inhibition at 10 µM (SK-OV-3): < 5%
inhibition at 10 µM (DU-145): < 5%
inhibition at 10 µM (PC-3): < 5%
inhibition at 10 µM (HS 578T): < 5%
inhibition at 10 µM (MCF-7): < 5%
inhibition at 10 µM (MDA-MB-231/ATCC): < 5%
inhibition at 10 µM (T-47D): < 5%
Ki (hCA IX): 72 nM
IC50 (hCA IX; p-NPA substrate, pH 7.5, 25 °C, triplicate, read-out: IC50 (µM) ± SD hCA IX): 0.07 µM and 0.072 µM
melting point: 132 to 135 °C

Source: paper PMC12454493, “Insight on novel sulfamoylphenyl pyrazole derivatives as anticancer carbonic anhydrase inhibitors” (Molecular Diversity, 2024)
